Reference: PubChem BioAssay AID328 (DTP/NCI, 2004)
Values joined by “and” are separate entries in the source; they are usually repeats but may differ in a detail not shown here. Equal values may be shown once. Toxic doses and inconclusive results are not listed.

System: BDF1 mice, P388 leukemia ip, median survival T/C
Experiment: NCI In Vivo Anticancer Drug Screen. Data for tumor model P388 Leukemia (intraperitoneal) in B6D2F1 (BDF1) mice
Details: endpoint: median survival time, higher = longer survival
Outline: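 Read-out is survival of treated animals expressed relative to the vehicle group, as a T/C ratio.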

[1] = dose: 50.0 mg/kg/injection, schedule: Q04DX003 (ip), vehicle: saline
[2] = dose: 100.0 mg/kg/injection, schedule: Q01DX009 (ip), vehicle: saline
[3] = dose: 100.0 mg/kg/injection, schedule: Q04DX003 (ip), vehicle: saline
[4] = dose: 200.0 mg/kg/injection, schedule: Q01DX009 (ip), vehicle: saline
[5] = dose: 200.0 mg/kg/injection, schedule: Q04DX003 (ip), vehicle: saline
[6] = dose: 400.0 mg/kg/injection, schedule: Q04DX003 (ip), vehicle: saline
[7] = dose: 100.0 mg/kg/injection, schedule: Q01DX009 (ip), vehicle: Klucel (hydroxypropylcellulose) (HPC)
[8] = dose: 200.0 mg/kg/injection, schedule: Q01DX009 (ip), vehicle: Klucel (hydroxypropylcellulose) (HPC)
[9] = dose: 100.0 mg/kg/injection, schedule: Q04DX003 (ip), vehicle: saline with Tween-80
[10] = dose: 200.0 mg/kg/injection, schedule: Q04DX003 (ip), vehicle: saline with Tween-80
[11] = dose: 400.0 mg/kg/injection, schedule: Q04DX003 (ip), vehicle: saline with Tween-80
[12] = dose: 50.0 mg/kg/injection, schedule: Q01DX009 (ip), vehicle: saline with Tween-80
[13] = dose: 100.0 mg/kg/injection, schedule: Q01DX009 (ip), vehicle: saline with Tween-80
[14] = dose: 200.0 mg/kg/injection, schedule: Q01DX009 (ip), vehicle: saline with Tween-80
[15] = dose: 12.5 mg/kg/injection, schedule: Q01DX009 (ip), vehicle: saline
[16] = dose: 100.0 mg/kg/injection, schedule: Q01DX001 (ip), vehicle: Klucel (hydroxypropylcellulose) (HPC)
[17] = dose: 200.0 mg/kg/injection, schedule: Q01DX001 (ip), vehicle: Klucel (hydroxypropylcellulose) (HPC)
[18] = dose: 400.0 mg/kg/injection, schedule: Q01DX001 (ip), vehicle: Klucel (hydroxypropylcellulose) (HPC)

CC#CCOCC(O)CCl (stereo not given)
T/C [1]: 115 % of control
T/C [2]: 108 % of control
T/C [3]: 95 % of control
T/C [4]: 116 % of control
T/C [5]: 90 % of control
T/C [6]: 112 % of control

O=C(CCCC(O)(C1CC1)C1CC1)C1CC1
T/C [7]: 100 % of control
T/C [8]: 115 % of control

CO/N=C1\CC(C)N2C(=O)C(C(C)C)NC(=O)C(NC(=O)c3c4nc5c(C(=O)NC6C(=O)NC(C(C)C)C(=O)N7C(C)CC(O)C7C(=O)N(C)CC(=O)N(C)C(C(C)C)C(=O)OC6C)ccc(C)c5oc-4c(C)c(=O)c3N)C(CO)OC(=O)C(C)N(C)C(=O)CN(C)C(=O)C12 (stereo not given)
T/C (dose: 0.05 mg/kg/injection, schedule: Q01DX009 (ip), vehicle: saline + alcohol): 99 % of control
T/C (dose: 0.1 mg/kg/injection, schedule: Q01DX009 (ip), vehicle: saline + alcohol): 100 % of control
T/C (dose: 0.15 mg/kg/injection, schedule: Q04DX003 (ip), vehicle: saline + alcohol): 98 % of control
T/C (dose: 0.2 mg/kg/injection, schedule: Q01DX009 (ip), vehicle: saline + alcohol): 102 % of control
T/C (dose: 0.3 mg/kg/injection, schedule: Q04DX003 (ip), vehicle: saline + alcohol): 100 % of control
T/C (dose: 0.4 mg/kg/injection, schedule: Q01DX001 (ip), vehicle: saline + alcohol): 92 % of control
T/C (dose: 0.6 mg/kg/injection, schedule: Q04DX003 (ip), vehicle: saline + alcohol): 105 % of control
T/C (dose: 0.8 mg/kg/injection, schedule: Q01DX001 (ip), vehicle: saline + alcohol): 110 % of control
T/C (dose: 1.2 mg/kg/injection, schedule: Q04DX003 (ip), vehicle: saline + alcohol): 107 % of control
T/C (dose: 1.6 mg/kg/injection, schedule: Q01DX001 (ip), vehicle: saline + alcohol): 110 % of control
T/C (dose: 2.4 mg/kg/injection, schedule: Q04DX003 (ip), vehicle: saline + alcohol): 115 % of control
T/C (dose: 3.2 mg/kg/injection, schedule: Q01DX001 (ip), vehicle: saline + alcohol): 118 % of control

Cc1ccc(NC(=O)Nc2ccccc2F)cc1NC(=O)Nc1ccccc1F
T/C [9]: 104 % of control
T/C [10]: 109 % of control
T/C [11]: 109 % of control

O=C(NC1CCCCC1)N(c1ccccc1)c1nnc(-c2cccc([N+](=O)[O-])c2)s1
T/C [12]: 104 % of control
T/C [13]: 95 % of control
T/C [14]: 115 % of control

COc1cc([C@@H]2c3cc4c(cc3[C@H](OC3OC5COC(c6ccccc6)OC5C(O)C3O)[C@H]3COC(=O)[C@H]23)OCO4)cc(OC)c1OC (stereo not given in full)
T/C (dose: 3.1 mg/kg/injection, schedule: Q01DX010 (ip), vehicle: carboxymethylcellulose (CMC)): 180 % of control
T/C (dose: 6.2 mg/kg/injection, schedule: Q01DX010 (ip), vehicle: carboxymethylcellulose (CMC)): 210 % of control
T/C (dose: 12.5 mg/kg/injection, schedule: Q01DX010 (ip), vehicle: carboxymethylcellulose (CMC)): 235 % of control
T/C (dose: 25.0 mg/kg/injection, schedule: Q01DX010 (ip), vehicle: carboxymethylcellulose (CMC)): 270 % of control
T/C (dose: 50.0 mg/kg/injection, schedule: Q01DX010 (ip), vehicle: carboxymethylcellulose (CMC)): 300 % of control

O=C(Nc1ccc(Nc2ccncc2)cc1)c1ccc(Nc2ccnc3ccc([N+](=O)[O-])cc23)cc1[N+](=O)[O-]
T/C [15]: 93 % of control
T/C (dose: 50.0 mg/kg/injection, schedule: Q01DX009 (ip), vehicle: saline): 88 % of control
T/C [1]: 111 % of control
T/C [2]: 91 % of control
T/C [3]: 105 % of control
T/C [4]: 98 % of control
T/C [5]: 93 % of control
T/C (dose: 400.0 mg/kg/injection, schedule: Q01DX009 (ip), vehicle: saline): 119 % of control
T/C [6]: 88 % of control

CSc1nc(C)cc(=O)[nH]1
T/C (dose: 6.25 mg/kg/injection, schedule: Q01DX009 (ip), vehicle: saline with Tween-80): 105 % of control
T/C (dose: 12.5 mg/kg/injection, schedule: Q01DX009 (ip), vehicle: saline with Tween-80): 103 % of control
T/C (dose: 25.0 mg/kg/injection, schedule: Q01DX009 (ip), vehicle: saline with Tween-80): 115 % of control
T/C [12]: 108 % of control

CCOC1=C(C#N)CC2(CC1)c1ccccc1-c1ccccc12
T/C [9]: 95 % of control
T/C [10]: 95 % of control
T/C [11]: 91 % of control

NC(CC(=O)O)c1nn[nH]n1 (stereo not given)
T/C [13]: 95 % of control
T/C [14]: 95 % of control
T/C (dose: 400.0 mg/kg/injection, schedule: Q01DX009 (ip), vehicle: saline with Tween-80): 100 % of control

CCCC(=O)c1ccco1
T/C [12]: 101 % of control

COc1cccc(OC)c1C1(O)c2c(OC)cccc2Oc2cccc(OC)c21
T/C [16]: 95 % of control
T/C [17]: 100 % of control
T/C [18]: 104 % of control

O=C(NCC(O)CCl)c1ccc([N+](=O)[O-])cc1 (stereo not given)
T/C [16]: 100 % of control
T/C [17]: 100 % of control
T/C [18]: 110 % of control

CCC(c1ccc2cc(OC)ccc2c1)C(C)(C)C(=O)F (stereo not given)
T/C (dose: 12.5 mg/kg/injection, schedule: Q01DX009 (ip), vehicle: Klucel (hydroxypropylcellulose) (HPC)): 116 % of control
T/C (dose: 33.0 mg/kg/injection, schedule: Q01DX009 (ip), vehicle: Klucel (hydroxypropylcellulose) (HPC)): 104 % of control
T/C (dose: 75.0 mg/kg/injection, schedule: Q01DX009 (ip), vehicle: Klucel (hydroxypropylcellulose) (HPC)): 113 % of control

CC(C)(C)OC(=O)CNC(=O)CCl
T/C [1]: 100 % of control
T/C [3]: 100 % of control
T/C [5]: 108 % of control

Cn1cnc([N+](=O)[O-])c1Sc1nc(N)nc2nc[nH]c12
T/C (dose: 7.0 mg/kg/injection, schedule: Q01DX009 (ip), vehicle: saline with Tween-80): 190 % of control
T/C (dose: 11.0 mg/kg/injection, schedule: Q01DX009 (ip), vehicle: saline with Tween-80): 190 % of control
T/C (dose: 16.5 mg/kg/injection, schedule: Q01DX009 (ip), vehicle: saline with Tween-80): 96 % of control

N/C(=N\O)c1nn(C2OC(CO)C(O)C2O)c2ncnc(N)c12 (stereo not given)
T/C [15]: 102 % of control
T/C (dose: 12.5 mg/kg/injection, schedule: Q04DX003 (ip), vehicle: saline): 115 % of control
T/C (dose: 25.0 mg/kg/injection, schedule: Q01DX009 (ip), vehicle: saline): 114 % of control
T/C (dose: 25.0 mg/kg/injection, schedule: Q04DX003 (ip), vehicle: saline): 105 % of control and 116 % of control
T/C [1]: 110 % of control and 112 % of control
T/C [3]: 105 % of control and 116 % of control
T/C [5]: 112 % of control

C[C@@H](O)[C@@H](O)c1cnc2nc(N)[nH]c(=O)c2n1
T/C (dose: 50.0 mg/kg/injection, schedule: Q01DX005 (ip), vehicle: saline with Tween-80): 100 % of control
T/C (dose: 100.0 mg/kg/injection, schedule: Q01DX005 (ip), vehicle: saline with Tween-80): 91 % of control
T/C (dose: 200.0 mg/kg/injection, schedule: Q01DX005 (ip), vehicle: saline with Tween-80): 115 % of control

CC(=O)OC1CCC(C)(C2CCC3(C)C(C(C)CCCC(C)C)CCC3C2CC(=O)O)C(=O)C1 (stereo not given)
T/C [7]: 90 % of control
T/C [8]: 90 % of control
T/C (dose: 400.0 mg/kg/injection, schedule: Q01DX009 (ip), vehicle: Klucel (hydroxypropylcellulose) (HPC)): 95 % of control

CCOC(=O)CCCC1(C)C(C#N)C(=O)NC(=O)C1C#N (stereo not given)
T/C [3]: 104 % of control
T/C [5]: 100 % of control
T/C [6]: 118 % of control

COS(C)(=O)=O
T/C (dose: 12.5 mg/kg/injection, schedule: Q01DX010 (ip), vehicle: saline): 100 % of control
T/C (dose: 25.0 mg/kg/injection, schedule: Q01DX010 (ip), vehicle: saline): 104 % of control
T/C (dose: 50.0 mg/kg/injection, schedule: Q01DX010 (ip), vehicle: saline): 108 % of control

CCOc1ccc(Br)cc1/C=N/NS(=O)(=O)c1ccc(C)cc1
T/C [9]: 109 % of control
T/C (dose: 176.0 mg/kg/injection, schedule: Q04DX003 (ip), vehicle: saline with Tween-80): 120 % of control
T/C [10]: 109 % of control
T/C (dose: 264.0 mg/kg/injection, schedule: Q04DX003 (ip), vehicle: saline with Tween-80): 120 % of control
T/C [11]: 120 % of control
